This test deals with T1, ULK1 (Homo sapiens, UniProt O75385).
T1 sequence (O75385 1-1050): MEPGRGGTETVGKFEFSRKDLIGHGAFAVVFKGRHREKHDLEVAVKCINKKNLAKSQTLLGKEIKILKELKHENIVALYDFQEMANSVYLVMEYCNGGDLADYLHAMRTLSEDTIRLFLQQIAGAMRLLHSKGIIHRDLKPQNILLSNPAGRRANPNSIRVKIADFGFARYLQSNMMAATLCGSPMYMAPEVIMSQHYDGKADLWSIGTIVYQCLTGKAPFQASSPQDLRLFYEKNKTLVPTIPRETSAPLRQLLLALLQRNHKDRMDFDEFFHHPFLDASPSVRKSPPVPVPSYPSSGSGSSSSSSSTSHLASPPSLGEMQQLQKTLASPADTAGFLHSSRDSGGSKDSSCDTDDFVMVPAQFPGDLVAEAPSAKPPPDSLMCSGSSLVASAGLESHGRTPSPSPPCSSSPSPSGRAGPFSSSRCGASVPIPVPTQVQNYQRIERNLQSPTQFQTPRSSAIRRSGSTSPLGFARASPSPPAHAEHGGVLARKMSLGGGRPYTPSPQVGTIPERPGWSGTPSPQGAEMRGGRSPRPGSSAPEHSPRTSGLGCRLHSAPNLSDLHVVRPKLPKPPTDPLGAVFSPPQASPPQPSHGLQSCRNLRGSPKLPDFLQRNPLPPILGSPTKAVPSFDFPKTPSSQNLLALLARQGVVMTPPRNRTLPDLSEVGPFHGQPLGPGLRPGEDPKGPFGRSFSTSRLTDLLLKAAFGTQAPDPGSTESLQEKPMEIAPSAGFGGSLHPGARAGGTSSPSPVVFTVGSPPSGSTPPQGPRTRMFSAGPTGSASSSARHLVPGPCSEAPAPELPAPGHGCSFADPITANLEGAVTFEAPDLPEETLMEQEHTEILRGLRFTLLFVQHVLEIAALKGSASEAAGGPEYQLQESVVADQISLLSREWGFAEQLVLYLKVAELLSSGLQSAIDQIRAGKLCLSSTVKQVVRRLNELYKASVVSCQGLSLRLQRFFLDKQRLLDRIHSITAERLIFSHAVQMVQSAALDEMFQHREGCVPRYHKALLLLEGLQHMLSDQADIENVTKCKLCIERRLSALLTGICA
Nature of the test: ULK1/TOM20 co-localisation immunofluorescence in PANC-1 cells. Also on record: pSer317 blot or TOM20 co-localisation. It counts as cell-based. On the procedure: FIG. 5. ULKTACs induce potent mitophagy after colocalisation and local activation of ULK1 at mitochondria (A) Representative immunofluorescence of PANC-1 cells treated with CCCP, ULKTACs or both and immunostained for TOM20 and ULK1 and counterstained with Alexa 488 and 568, respectively. Nuclei stained with Hoechst 33342. (B) Quantification of the colocalised ULK1 to TOM20 spot area of PANC-1 cells treated with DMSO, 5 mM CCCP, 10 mM BL-918, 10 mM BL-918+5 mM CCCP, […] NZ-65, […] NZ-65+5 mM CCCP, […] NZ-66, […] NZ-66+5 mM CCCP, 50 mM TSPO ligand, […] NZ-65+50 mM TSPO ligand, […] NZ-66+50 mM TSPO ligand. (C) Western blot of SH-SY5Y cells treated with 1 mM ULKTACs, 5 mM CCCP or both, probed for Mfn2, b-Actin and Tom20—quantifications are shown in (D) for Mfn2, normalised to Actin. (E) Representative images of SH-SY5Y cells stably expressing the mito-mKeima reporter treated with 3 mM CCCP, NZ-65 or both. Nuclei were stained with Hoechst 33342, healthy mitochondria are shown in green and mitochondria in lysosomes are shown in red. Fold change in mitophagy index over time after treatment for the indicated timepoints with title treatments alone or co-treated with 1.25 mM ULKTAC or 10 mM ULKTAC NZ-65 (F) or NZ-66 (G). Fold change in mitophagy index over time after treatment for the indicated timepoints with DMSO, 1.25 µM NZ-65 or NZ-66±50 µM TSPO ligand under co-treatment with DMSO (H) or 3 μM CCCP (I). […] Normalised to number of nuclei. All data shown are mean±SEM, n=3, *p<0.05, ** p<0.01, *** p<0.001. For colocalisation and TMRM experiments, one-way ANOVA with Dunnett's multiple comparisons test. For western blots, one-way ANOVA with Tukey's multiple comparisons test and unpaired t-test. For mito-mKeima experiment, two-way ANOVA with Tukey's multiple comparisons test.
For TOM20/ULK1 immunofluorescence, cells were seeded in a 384 well PerkinElmer CellCarrier Ultra plate 24 hours prior to treatment with compounds. Cells were treated for 18 hours after which they were fixed with 4% paraformaldehyde (PFA) in phosphate buffered saline (PBS) and blocked with 10% FBS and 0.1% Triton in PBS. Plates were incubated at 4° C. overnight, with 1:400 mouse anti-TOM20 (Santa Cruz, #sc-17764) and 1:400 rabbit anti-ULK1 (Cell Signalling Technologies, #0854). The following day, plates were incubated with 1:1000 goat anti-mouse Alexa 488 (ThermoFisher Scientific, #A-11029), 1:1000 goat anti-rabbit Alexa 568 (ThermoFisher Scientific, #A-11011) and 1.62 μM Hoechst 33342 at room temperature for 1 hour before imaging. For ATP5a/LC3 immunofluorescence, cells were fixed with ice-cold 1:1 MeOH: acetone and blocked with 3% BSA (Sigma-Aldrich, #A3803) in Dulbecco's PBS (D-PBS). Plates were incubated overnight at 4° C. with 1:400 LC3B (D11) XP Rabbit mAb Alexa Fluor 647 Conjugate (Cell Signalling Technologies, #65299) and 1:400 ATP5a (Cell Signalling Technologies, #18023) lightning-linked to Alexa Fluor 488. The following day, plates were incubated with 1.62 […] at room temperature for 1 hour before imaging. Excitation and emission spectra for each channel are as follows: Hoechst 33342=405/435-480 nm, Alexa 488=488/500-550 nm and Alexa 568=561/570-630 nm. Images were acquired at 40× and 63× magnification with water immersion lens.
To understand the temporal kinetics of NZ-65 and NZ-66, we assessed the recruitment of ULK1 to mitochondria, using co-localisation of ULK1 and TOM20 by immunofluorescence. […] After showing the co-localisation of ULK1 to the outer mitochondrial membrane (OMM) after ULKTAC treatment, we wanted to determine whether the ULKTACs induced mitophagy. To do this, we measured changes in Mfn2 under basal conditions and co-treatment with CCCP (FIG. 5C, D).

The structures appear in SMILES notation.

Regarding `O=C(Nc1ccc(F)cc1F)[C@H](NC(=S)Nc1cc(C(F)(F)F)cc(C(F)(F)F)c1)c1ccccc1` [BL-918, reference compound], the “co-localisation of ULK1 and TOM20” value (PANC-1, 18 hours, alone) is on record as “neither BL-918 nor the TSPO ligand alone induce co-localisation”.
On to `O=C(Nc1cc(C(F)(F)F)cc(C(F)(F)F)c1)N[C@@H](C(=O)Nc1ccc(F)cc1F)c1ccc(OCc2cn(CCOCCOCCNC(=O)C(=O)c3c(-c4ccccc4)[nH]c4ccccc34)nn2)cc1` [NZ-65, (R)-2-(3-(3,5-bis(trifluoromethyl)phenyl)ureido)-N-(2,4-difluorophenyl)-2-(4-((1-(2-(2-(2-(2-oxo-2-(2-phenyl-1H-indol-3-yl)acetamido)ethoxy)ethoxy)ethyl)-1H-1,2,3-triazol-4-yl)methoxy)phenyl) acetamide], for which the “co-localisation of ULK1 and TOM20” value (PANC-1, 18 hours, alone) was “increased co-localisation of ULK1 and TOM20”; the “co-localisation of ULK1 and TOM20” value (PANC-1, CCCP co-treatment) is “enhanced by CCCP co-treatment”.
With `O=C(Nc1cc(C(F)(F)F)cc(C(F)(F)F)c1)N[C@@H](C(=O)Nc1ccc(F)cc1F)c1ccc(OCc2cn(CCCCCCNC(=O)C(=O)c3c(-c4ccccc4)[nH]c4ccccc34)nn2)cc1` [NZ-66, (R)-2-(3-(3,5-bis(trifluoromethyl)phenyl)ureido)-N-(2,4-difluorophenyl)-2-(4-((1-(6-(2-oxo-2-(2-phenyl-1H-indol-3-yl)acetamido)hexyl)-1H-1,2,3-triazol-4-yl)methoxy)phenyl) acetamide], the “co-localisation of ULK1 and TOM20” value was “increased co-localisation of ULK1 and TOM20” (PANC-1, 18 hours, alone); “enhanced by CCCP co-treatment” (PANC-1, CCCP co-treatment).

Values taken from patent US20260335323A1, “CHIMERIC MOLECULE” (UCL Business Ltd, priority 2023, published 2026).
